What is called inhibition is the percentage by which the read-out fell short of the control. A lower inhibition goes with a response near the control.

The test system of assay [1] is production of PGE2 in human pulmonary adenocarcinoma cell line A549 (mPGES-1). Briefly: Inhibition of PGE2 production in IL-1β-stimulated A549 cells (EIA). The class given is cell-based. The following applies: for IC50: IL-1β stimulated, read-out: pIC50 PGE2 (converted). The source says: (§1) The test used makes it possible to evaluate the inhibitory capacity of the test compounds on the production of PGE2 and the selectivity relative to the production of PGF2α. The human pulmonary adenocarcinoma cell line A549 was used, which is particularly sensitive to stimulation with proinflammatory cytokines, for instance IL-1β, and, in response to this stimulation, is particularly active in the production and release of two prostanoids: PGE2 and PGF2α (Thoren S. Jakobsson P-J, 2000).
(§2) The cells were stimulated with IL-1β (10 ng/ml) and simultaneously treated with the test compound for 22 hours in a suitable culture medium (DMEM Dulbecco's Modified Eagles Medium) enriched with 5% fetal calf serum and L-glutamine (4 mM final) in an incubator at 37° C. and with a CO2 concentration of 5%.
(§3) At the end of the incubation, the amount of PGE2 and PGF2α produced and released into the supernatant were assayed using an EIA kit (produced and sold by Cayman Chemicals, Ann Arbor, Mich., USA).
(§4) The comparative compound used was indomethacin at a concentration of 10 nM (Sigma-Aldrich), which is a non-steroidal anti-inflammatory drug that inhibits in equal measure both PGE2 and PGF2α.
(§5) For illustrative purposes, Table 3 collates the pIC50 values of a number of compounds of the invention, where pIC50 represents the negative logarithm of the IC50, which, in turn, represents the concentration of compound that inhibits the production of PGE2 or PGF2α by 50% relative to cells that are stimulated but not treated with the same compound.

The test system of assay [2] is production of PGE2 in human lymphoma cell line U-937 (cPGES). Kind of assay: Inhibition of PGE2 production in U-937 cells (selectivity between isoforms of PGES). The class given is cell-based. The following applies: basal conditions. The source says:
The test used makes it possible to evaluate the capacity of the compounds of the invention to inhibit the production of PGE2 in a human lymphoma cell line U-937 that preferentially expresses an enzymatic isoform (cPGES), which is responsible for the production of PGE2 under basal conditions, in the absence of pro-inflammatory stimuli. This enzymatic form is different from the one predominantly expressed in the A549 cells (mPGES-1) after a pro-inflammatory stimulus.
The absence of inhibitory activity on PGE2 in this cell model ensures the selectivity of the compound compared with the enzymatic form responsible for the production of PGE2 in the presence of inflammatory stimuli.
The reference compound used was indomethacin at a concentration of 10 nM.

For assay [3], the system named is production of PGF2α in human pulmonary adenocarcinoma cell line A549. Briefly: Inhibition of PGF2α production in IL-1β-stimulated A549 cells (EIA). It is filed as cell-based. To be noted: for IC50: IL-1β stimulated, read-out: pIC50 PGF2α (converted).
Description: as §1, §2, §3, §4, §5

For assay [4], the system named is acetic acid-induced stretching in mice. Kind of assay: Acetic acid-induced stretching in mice. It is filed as in vivo. The following applies: female CD-1 mice; for N° of stretches: 20 minutes after acetic acid; for % inhibition (stretches): vs vehicle (MTC). On the procedure:
The test compound was evaluated in the model of acetic acid-induced stretching in mice (Stock J. L. et al., J Clin Inv 2001, 107: 325-331). This test makes it possible to evaluate the antinociceptive activity of the compounds of the invention in a model of inflammatory pain.
Female CD-1 mice weighing 25-30 g were used for the test. […] The control animals were treated with the vehicle alone (MTC) via the same route.
30 minutes after the treatment, the animals received an intraperitoneal injection of acetic acid (0.7 v/v in physiological solution, 16 μl/g of body weight) in order to induce inflammatory pain and to check the effects of the test compound on the nociceptive response.
Immediately after the administration of acetic acid and for the following 20 minutes, the number of stretches, which represents the parameter for evaluation of the nociceptive response, was measured.

[5] abbreviates: 10 nM, IL-1β 10 ng/ml, 22 hours.

In the case of `COCCn1c(-c2ccccc2)cc2cc(NC(=O)c3ccccc3Cl)ccc21` [Compound 12], the inhibition at 10 µM in assay [1] (IL-1β 10 ng/ml, 22 hours) is 78%; in assay [2], less than 20%; in assay [3] (IL-1β 10 ng/ml, 22 hours), less than 20%. For the same compound, the IC50 in assay [1] is 3.16 µM.

`O=C(Nc1ccc2c(c1)cc(C(=O)Nc1ccccc1)n2CCCO)c1ccccc1C(F)(F)F` [Compound 35]: the inhibition at 10 µM was 88% in assay [1] (IL-1β 10 ng/ml, 22 hours) and 13% in assay [3] (IL-1β 10 ng/ml, 22 hours). For the same compound, the IC50 is 2.51 µM in assay [1] and 31.6 µM in assay [3].

For the compound `CCn1c(C2CCCCC2)cc2cc(NC(=O)c3ccccc3Cl)ccc21` [Compound 10], the “N° of stretches” value stood at 47 ± 4.3 in assay [4] (0.01 mg/kg intraperitoneally), 34 ± 3.2 in assay [4] (0.1 mg/kg intraperitoneally), 33 ± 3.9 in assay [4] (1 mg/kg intraperitoneally) and 21 ± 3.2 in assay [4] (10 mg/kg intraperitoneally). The “% inhibition (stretches)” value in assay [4] (0.01 mg/kg intraperitoneally) is recorded as 5.9 ± 8.76%; in assay [4] (0.1 mg/kg intraperitoneally) it was 33.2 ± 6.16%; in assay [4] (1 mg/kg intraperitoneally) it was 33.6 ± 8.04%; in assay [4] (10 mg/kg intraperitoneally), 57.5 ± 6.57%. The inhibition at 10 µM is 78% in assay [1] (IL-1β 10 ng/ml, 22 hours); less than 20% in assay [2]; less than 20% in assay [3] (IL-1β 10 ng/ml, 22 hours). The IC50 in assay [1] was 1.58 µM.

As to `O=C(Nc1ccc2c(c1)cc(-c1ccc(F)cc1)n2CCO)c1c(Cl)cccc1Cl` [Compound 36], the inhibition at 10 µM in assay [1] (IL-1β 10 ng/ml, 22 hours) was 40%; in assay [3] (IL-1β 10 ng/ml, 22 hours), less than 20%. The IC50 in assay [1] is 50.1 µM.

For the compound `CS(=O)(=O)n1c(-c2cccc(C(F)(F)F)c2)cc2cc(NC(=O)c3ccccc3Cl)ccc21` [Compound 22], the inhibition at 10 µM in assay [1] (IL-1β 10 ng/ml, 22 hours) was 94%; in assay [2] it was less than 20%; in assay [3] (IL-1β 10 ng/ml, 22 hours), 44%. Also, the IC50 in assay [1] is 1.58 µM; in assay [3], 25.1 µM.

In the case of `O=C(Nc1ccc2c(c1)cc(-c1ccc(Cl)cc1)n2CCO)c1ccc(F)cc1C(F)(F)F` [Compound 37], the inhibition at 10 µM is 73% in assay [1] (IL-1β 10 ng/ml, 22 hours) and less than 20% in assay [3] (IL-1β 10 ng/ml, 22 hours). The IC50 in assay [1] was 6.31 µM.

`CC(=O)OCCCn1c(-c2ccccc2)cc2cc(NC(=O)c3ccccc3Cl)ccc21` [Compound 13]: the inhibition at 10 µM in assay [1] (IL-1β 10 ng/ml, 22 hours) was 61%; in assay [2], less than 20%; in assay [3] (IL-1β 10 ng/ml, 22 hours), less than 20%. For the same compound, the IC50 in assay [1] is 7.94 µM.

As for `CCn1c(CCc2ccccc2)cc2cc(NC(=O)c3ccccc3Cl)ccc21` [Compound 33], the inhibition at 10 µM was 41% in assay [1] (IL-1β 10 ng/ml, 22 hours) and less than 20% in assay [3] (IL-1β 10 ng/ml, 22 hours).

Turning to `CCOC(=O)CCCn1c(-c2ccccc2)cc2cc(NC(=O)c3ccccc3Cl)ccc21` [Compound 7], the inhibition at 10 µM in assay [1] (IL-1β 10 ng/ml, 22 hours) was 76%; in assay [3] (IL-1β 10 ng/ml, 22 hours), less than 20%. The IC50 in assay [1] is 3.98 µM.

As to `O=C(Nc1ccc2c(c1)cc(-c1ccc(F)cc1)n2CCO)c1c(F)cccc1C(F)(F)F` [Compound 38], the inhibition at 10 µM was 42% in assay [1] (IL-1β 10 ng/ml, 22 hours) and less than 20% in assay [3] (IL-1β 10 ng/ml, 22 hours). Moreover, in assay [1], the IC50 was 25.1 µM.

As to `CCn1c(-c2ccc(C)cc2)cc2cc(NC(=O)c3ccccc3Cl)cnc21` [Compound 1], the inhibition at 10 µM in assay [1] (IL-1β 10 ng/ml, 22 hours) was 59%; in assay [3] (IL-1β 10 ng/ml, 22 hours), less than 20%.

With `CS(=O)(=O)n1c(CCc2ccccc2)cc2cc(NC(=O)c3ccccc3Cl)ccc21` [Compound 21], the inhibition at 10 µM in assay [1] (IL-1β 10 ng/ml, 22 hours) is 69%; in assay [3] (IL-1β 10 ng/ml, 22 hours) it was less than 20%. For the same compound, the IC50 in assay [1] was 0.501 µM.

In the case of `CCn1c(Cc2ccccc2)cc2cc(NC(=O)c3ccccc3Cl)ccc21` [Compound 34], the inhibition at 10 µM in assay [1] (IL-1β 10 ng/ml, 22 hours) amounted to 83%; in assay [3] (IL-1β 10 ng/ml, 22 hours), 44%. In addition, the IC50 in assay [1] is 2.51 µM.

Consider `COc1ccc2c(c1)c(CC(=O)O)c(C)n2C(=O)c1ccc(Cl)cc1` [Indomethacin, indomethacin, reference compound], for which the inhibition at 0.01 µM in assay [1] (setting [5]), in assay [2] (10 nM) and in assay [3] (setting [5]) was 100% in each case. In addition, the IC50 in assay [1] is 0.00501 µM; in assay [3], 0.00251 µM.

For the origin of these results see patent publication US8871948B2, “(Aza)indole derivative substituted in position 5, pharmaceutical composition comprising it, intermediate compounds and preparation process therefor” (Aziende Chimiche Riunite Angelini Francesco A.C.R.A.F.S.p.A., priority 2007, dated 2014).
